{"source": "patent US20240352066A1", "about": "“ANTIMICROBIAL COMPOUNDS AND THE METHOD OF USE” (priority 2021, published 2024)", "key": {"C. neoformans": {"test_system": "C. neoformans", "assay_type": "cell-based, Cryptococcus neoformans", "conditions": "72 h", "description": "The minimum inhibitory concentration (MIC) of peptoids against fungal pathogens C. albicans and C. neoformans was determined following CLSI guidelines (CLSI. Reference method for broth dilution antifungal susceptibility testing of yeasts; approved standard-third edition; CLSI document M27-A3. (Clinical and Laboratory Standards Institute, 2008). […] This inoculant was diluted 1:100 into RPMI-MOPS and then further diluted 1:20 into RPMI-MOPS. 198 μL of inoculant was seeded into each well of a 96 well black-walled plate. 2-fold serial dilutions of 100× peptoid solutions were prepared in water and 2 μL of peptoid were added to each well in triplicate. […] MIC was defined as the lowest concentration of compound preventing fungal growth. This assay was repeated 3 times on separate days with each compound. […] The addition of 0.1 mL cell solution to 9.9 mL of RPMI-MOPS produced a 1:100 cell solution. After vortexing, 0.5 mL of the […] was added to 9.5 mL RPMI-MOPS to produce a 1:20 cell solution. 198 μL of the 1:20 solution was added to the wells of an opaque 96-well plate, apart from the wells designated for the medial control. […] Amphotericin B was used as a positive control, and sterile water was used for the vehicle control. The plates were incubated for 72 hours at 35° C. After incubation, the concentration of compound resulting in no visual growth was recorded as the MIC. All assays performed in biological triplicate on different days."}, "[1]": {"assay": "Mammalian cytotoxicity, MTT, HepG2", "assay_type": "cell-based, human", "conditions": "human, HepG2 hepatocellular carcinoma cells", "description": "Hepatocellular carcinoma (HepG2), mouse fibroblast (3T3), human lung (HPL1A), and human keratinocyte (HaCat) cells were cultured in Dulbecco modified eagle media (DMEM) containing 10% fetal bovine serum (FBS) and 1% penicillin, streptomycin, and glutamine (PSG) at 37° C. and 5% CO2. Cells were collected and adjusted to […] to 4×10^5 cells/mL in phenol-red free DMEM and plated (100 μL) 96 well plates. 2-fold serial dilutions of 10× peptoid (11.1 μL) were added to each well in triplicate. Water (vehicle) was used as a negative control. Plates were incubated at 37° C. in 5% CO2 for 72 hours. Thiazolyl blue tetrazolium bromide (MTT) was added to each well (5 mg/mL; 20 μL) and incubated for 3 hours. Media was removed, DMSO (100 μL) was added, and plates were incubated at 37° C. for 10 minutes. Plates were read on a SpectraMax M5 plate reader (Abs. 570 nm). The concentration of compound resulting in a 50% reduction in growth compared to control (toxicity dose 50%; TD50) was determined using GraFit. This procedure was repeated three times on separate days.\nCytotoxicity against HepG2 hepatocellular carcinoma cells was done as previously described (Green et al. ACS infectious diseases, (2022); Corson et al. ACS medicinal chemistry letters 7 12, 1139-1144 (2016)). HepG2 cells were maintained in culture in T-75 flasks using Dulbecco's Modified Eagle's Media (DMEM) with phenol red pH indicator and supplemented with 10% fetal bovine serum (FBS) and 1% penicillin, streptomycin, and glutamine (PSG). The cells were incubated at 37° C. and 5% CO2 in a humidified incubator until desired confluency was achieved. The media was removed from the flask, and the cells were washed 1× with 10 mL of phosphate-buffered saline (PBS; 11.8 mM phosphate, 140.4 mM NaCl; pH 7.4) which was then discarded. To remove the adhered cells from the flask, 2 mL of trypsin was added, and the cells were incubated for 10 minutes. To quench the trypsin, 8 mL of phenol red-free DMEM with 10% FBS and 1% PGS was added, and the cell solution was transferred to a 15 mL conical tube. After the cells were pelleted by centrifugation at 1000 rpm for 5 minutes, the supernatant was poured off and cells resuspended in the volume of phenol red-free media needed for the assay. Cell concentration was determined by counting with a hemocytometer, and the solution was diluted with media until a concentration of 1×10^5 cells/mL was achieved. A 100 μL aliquot of cell solution was added to each well of a 96-well plate, apart from the 3 wells used for a media control. Cells were incubated for 2-3 hours at 37° C. and 5% CO2 until cells were adherent.\nCompound stocks of 20 mg/mL were used to prepare 2-fold serial dilutions of each compound in sterile water, giving final concentrations of 200, 100, 50, 25, 12.5, 6.25, 3.13 and 1.56 μg/mL. 11.1 μL of prepared compound solutions was added to the appropriate wells in triplicate. A negative vehicle control of sterile water, as well as the aforementioned media control, were used. The plates were incubated for 72 hours at 37° C. and 5% CO2. After incubation, 20 μL of 5 mg/mL 3-(4,5-dimethylthiazol-2-yl)-2,5-diphenyltetrazolium bromide (MTT) in water was added to each well. The plate was incubated for 3 hours at 37° C. and 5% CO2. Media was removed from each well using a sterile glass Pasteur pipette. 100 μL of DMSO was added to each well and incubated for 15 minutes at 37° C. Absorbance was read at 570 nm using a SpectraMax M5 Plate Reader. This MTT assay was performed in biological duplicate unless discrepant results were observed. If this was the case, the assay was performed in biological triplicate for further verification. The reported value is the average of biological replicates with standard deviation."}, "[2]": {"test_system": "human red blood cells (hRBC)", "assay": "Hemolytic activity against human red blood cells", "assay_type": "cell-based", "conditions": "Example 2; same donor sample of hRBCs", "description": "Hemolytic activity was determined using single donor human red blood cells (hRBC). hRBCs were washed with PBS and centrifuged (1000 RPM; 10 minutes) three times, resuspended in PBS and aliquoted (100 μL) in 96 well plates. 2-fold serial dilutions of 10× peptoid final concentrations in PBS were prepared and added to wells in triplicate. PBS was used as a vehicle control and 1% Triton X-100 as a positive control. Plates were incubated for 1 hour (37° C.; 5% CO2) then centrifuged (1000 RPM; 10 minutes) and supernatant was diluted 1:20 into PBS in a new 96-well plate. Plates were read on a SpectraMax M5 plate reader (Abs. 405 nm). Percent hemolysis was determined by the following equation: […]\nGraFit was used to determine concentrations at 50% hemolytic activity (HC50) and the Hill coefficient (H). Hemolytic activity at 10% (HC10) was then determined by the following equation: […]\nThe hemolytic activity of select peptoids was determined as done previously (Green et al. ACS medicinal chemistry letters 12 9, 1470-1477 (2021); Middleton et al. Bioorganic & medicinal chemistry letters 28 22, 3514-3519 (2018)). Selected peptoids were prepared in 2-fold serial dilutions in PBS at the desired concentrations. Human red blood cells (hRBCs, 9 mL) were centrifuged at 1000 rpm for 10 minutes, and the supernatant was removed and discarded. A 10 mL aliquot of PBS was used to resuspend the hRBCs which were centrifuged again at 1000 rpm for 10 minutes. This PBS wash was completed two more times for a total of three washes. A 9 mL aliquot of PBS was added to the hRBCs, and 100 μL of cell solution was added to individual wells of a 96-well plate. Peptoid solutions (11.1 μL) were added to the appropriate wells in triplicate. A vehicle control of PBS and positive control of 1% Triton X-100 were added to wells in triplicate.\nThe plate was incubated at 37° C. for 1 hour and centrifuged at 1000 rpm for 10 minutes. For each well, 5 μL of supernatant was transferred to 95 μL of PBS in a new 96-well plate. The absorbance at 405 nm was measured using a SpectraMax M5 Plate Reader, and the percent hemolysis was calculated as follows: […]"}, "C. albicans": {"test_system": "C. albicans", "assay": "Peptoid library agar diffusion (PLAD) screening of library RGL8", "assay_type": "cell-based, Candida albicans", "conditions": "RPMI-MOPS media", "source_text": "Antimicrobial peptoids of the present disclosure may have biological activity. Biological activity can be antimicrobial activity against a microbe, e.g., a fungal pathogen, a bacterial pathogen, or a combination thereof. A peptoid library agar diffusion (PLAD) assay may be used to identify peptoids that have antimicrobial activity (Fischer et al., ACS Comb. Sci. 18, 287-291 (2016); Corson et al., ACS Med. Chem. Lett. 7, 1139-1144 (2016); Turkett et al., ACS Comb. Sci. 18, 287-291 (2016)). The PLAD assay uses a PLAD chemical linker. […] Beads containing the PLAD linked peptoids are embedded in an agar medium where the agar medium is inoculated with the microbe of interest. The β-strand peptoid is released by a reducing reagent. The reducing agent cleaves a disulfide within the PLAD linker, allowing the β-strand peptoid to interact with microbes around the bead. If the released peptoid has antimicrobial activity, a zone of inhibited growth will be present. The α-strand peptoid remains attached to the bead during the screening process. […] The chemical cleavage of the α-strand peptoid is be accomplished at a C-terminal methionine of the PLAD linker using cyanogen bromide. […] The PLAD assay may be adapted to screen a peptoid of interest against different types of microbes of interest through slight modifications of the assay parameters. […]"}}, "note": "Where a SMILES comes first, the peptide text is derived from it. [ ]: non-standard residue; d: D form. N(tridecyl)Gly = CCCCCCCCCCCCCNCC(=O)O; N(4-F-Bzl)Gly = O=C(O)CNCc1ccc(F)cc1; Gly(N-2-aminoethyl) = NCCNCC(=O)O; Nspe = C[C@H](NCC(=O)O)c1ccccc1; Nlys = NCCCCNCC(=O)O", "data": [{"compound": "CCCCCCCCCCCCCNCC(=O)N(CC(=O)N(CCCCN)CC(=O)N(CCN)CC(=O)N(CC(N)=O)[C@@H](C)c1ccccc1)[C@@H](C)c1ccccc1", "note": "[Compound 16] (H-[N(tridecyl)Gly][Nspe][Nlys][Gly(N-2-aminoethyl)][Nspe]-NH2)", "values": [{"measurement": "C. neoformans MIC", "setting": "C. neoformans", "result": "1.56 to 3.13", "unit": "µg/mL"}, {"measurement": "CC50 at 72 h", "setting": "[1]", "result": "167 ± 104", "unit": "µg/mL"}, {"measurement": "hRBC HC10", "setting": "[2]", "result": "38 ± 11", "unit": "µg/mL"}]}, {"compound": "CCCCCCCCCCCCCNCC(=O)N(CC(=O)N(CCCCN)CC(=O)N(CCN)CC(=O)N(CC(N)=O)Cc1ccc(F)cc1)Cc1ccc(F)cc1", "note": "[Compound 17] (H-[N(tridecyl)Gly][N(4-F-Bzl)Gly][Nlys][Gly(N-2-aminoethyl)][N(4-F-Bzl)Gly]-NH2)", "values": [{"measurement": "C. neoformans MIC", "setting": "C. neoformans", "result": "1.56 to 3.13", "unit": "µg/mL"}, {"measurement": "CC50 at 72 h", "setting": "[1]", "result": "150 ± 7", "unit": "µg/mL"}, {"measurement": "hRBC HC10", "setting": "[2]", "result": "59 ± 22", "unit": "µg/mL"}]}, {"compound": "Ntri-Ncha-Ncha-Ncha-Ncha", "values": [{"measurement": "PLAD screening result (zone of inhibited fungal growth)", "setting": "C. albicans", "result": "hit"}]}]}
